# From article PMC10914734 (Signal Transduction and Targeted Therapy, 2024)
# Legend:
# Human TMPRSS2 = Human TMPRSS2 (Homo sapiens, UniProt O15393); assay: Protease panel, TMPRSS2 inhibition; format: biochemical; details: at a concentration of 10 μM
# Method: Enzymatic activity and inhibition assays of both compounds against the remaining proteases in Supplementary Table S2 were measured by a commercial company.
# C57BL/6 mice = assay: In vivo acute toxicity study in mice; details: oral, 1000 mg/kg/day and 2000 mg/kg/day
# Method: C57BL/6 mice (aged 6–8 weeks, 16–25 g) consisting of half male and half female were used to assess toxicity of compounds 14a and 14b in vivo. Compounds, vehicle, dosage, and administration schemes are shown in Supplementary Table S6. In short, mice were treated with compounds 14a and 14b at the indicated doses by oral gavage and the mice were clinically observed for 12 days after administration, including body weights, food consumption, and general status. At the end of the studies, the mice were anesthetized by Zoletil 50, and the organ and tissue samples were observed by naked eyes.
# Pharmacokinetics in mice = format: in vivo; details: 14a; for AUC(0-inf): read-out: AUCINF_obs; for MRT inf: read-out: MRTINF_obs
# SARS-CoV-2 PsV = format: cell-based; details: 500 nM
# [1] = tested on: LPS-induced expression of proinflammatory cytokines (IL-1β, IL-6) and chemokines (CCL3, CXCL10) in Raw 264.7 mouse macrophages; assay: Anti-inflammatory assay in LPS-stimulated Raw 264.7 cells (RT-qPCR); format: cell-based; details: LPS 200 ng/mL 6 h, dose-dependent
# Method: Mouse macrophage Raw 264.7 cells were incubated with compounds 14a or 14b at different doses for 2 h. Then, the cells were stimulated with LPS (200 ng/mL) for 6 h, followed by RT-qPCR analysis.
# RNA isolation, cDNA synthesis, and RT-qPCR. Total RNA was isolated from cells using RNA extraction reagent (Vazyme, R401-01). cDNA was synthesized using the HiScript IIQ RT SuperMix (Vazyme, R223-01), according to manufacturer’s instructions. RT-qPCR was performed using ChamQ SYBR qPCR Master Mix (Vazyme, Q331-02) in a CFX96TM Real-Time PCR Detection System (Bio-Rad, Shanghai, China). The profile of thermal cycling consisted of initial denaturation at 95 °C for 30 s, 40 cycles at 95 °C for 5 s and 60 °C for 30 s. All primer sequences used in this study are listed in Supplementary Table S5.
# SARS-CoV-2 M^pro = SARS-CoV-2 M^pro (Severe acute respiratory syndrome coronavirus 2, UniProt P0DTD1); assay: biochemical
# HCoV-229E PsV = assay: microbe, parasite or virus in culture; format: cell-based; details: Human coronavirus 229E, Huh-7, read-out: EC50, HCoV-229E PsV
# HCoV-OC43 = assay: microbe, parasite or virus in culture; format: cell-based; details: Betacoronavirus 1, OC43, RD, read-out: EC50, authentic HCoV-OC43
# Pharmacokinetics in dogs = format: in vivo; details: for AUC(0-inf): read-out: AUCINF_obs; for MRT inf: read-out: MRTINF_obs
# Method: Three groups of male Beagle dogs weighing 9 to 12 kg (2 animals per group) were intravenously (1 mg/kg), subcutaneously (1 mg/kg) and orally (5 mg/kg) dosed 14a in a vehicle consisting of 5% dimethyl sulfoxide, 7.5% Kolliphor HS 15 and 87.5% saline (volume ratio). Serial blood samples were collected at 0.083, 0.25, 0.75, 2.0, 4.0, 6.0, 8.0 and 24.0 h for the intravenous and […] groups and 0.25, 0.5, 1.0, 2.0, 4.0, 6.0, 8.0 and 24.0 h for the oral group after dose administration. Two groups of male Beagle dogs weighing 9 to 12 kg (3 animals per group) were intravenously (1 mg/kg) and subcutaneously (1 mg/kg) dosed 14b in a vehicle consisting of 5% dimethyl sulfoxide, 5% ethanol, 40% polyethylene glycol 400 and 50% saline (volume ratio). Serial blood samples were collected at 0.083, 0.25, 0.50, 1.00, 2.00, 4.00, 8.00 and 24.0 h after dose administration. A group of 3 male Beagle dogs weighing 9 to 12 kg was administered an oral dose of 5 mg/kg 14b in a vehicle consisting of 5% dimethyl sulfoxide and 95% hydroxypropyl methyl cellulose solution (0.5% hydroxypropyl methyl cellulose in deionized water in weight ratio) (volume ratio). Serial blood samples were collected at 0.25, 0.50, 1.00, 2.00, 4.00, 8.00 and 24.0 h after dose administration. All blood samples were obtained by centrifugation and stored at -20 °C until analysis.
# Plasma compound concentrations were obtained through HPLC-MS/MS, and the pharmacokinetics parameters were analyzed by Phoenix WinNonlin 7.0. The following parameters were determined: Cmax (maximal concentration of drug in plasma), AUClast or AUCINF_obs (area under the concentration curve from the time of dosing to the last measurable concentration or from the time of dosing to infinity, respectively). Tmax (time of maximum observed concentration), T1/2 (half-life of elimination), MRTINF_obs (mean residence time extrapolated to infinity for a substance administered by indicated dosing using observed last concentration), CL (total body clearance), Vss (volume of distribution at steady state) and F (absolute bioavailability, F = (AUCx × Di.v.)/( AUCi.v. × Dx) × 100%, where x is i.p., s.c. or p.o., and AUC is AUCINF_obs).The pharmacokinetic parameters were analyzed by Phoenix WinNonlin 7.0.
# [2] = male, ICR, mouse, plasma, ip, i.p. (5 mg/kg)
# [3] = male, ICR, mouse, plasma, iv, i.v. (5 mg/kg)
# [4] = male, ICR, mouse, plasma, po, p.o. (10 mg/kg)
# [5] = male, Beagle, dog, plasma, iv, i.v. (1 mg/kg)
# [6] = male, Beagle, dog, plasma, po, p.o. (5 mg/kg)
# [7] = male, Beagle, dog, plasma, sc, s.c. (1 mg/kg)
# Human TMPRSS2, sequence (O15393 whole entry): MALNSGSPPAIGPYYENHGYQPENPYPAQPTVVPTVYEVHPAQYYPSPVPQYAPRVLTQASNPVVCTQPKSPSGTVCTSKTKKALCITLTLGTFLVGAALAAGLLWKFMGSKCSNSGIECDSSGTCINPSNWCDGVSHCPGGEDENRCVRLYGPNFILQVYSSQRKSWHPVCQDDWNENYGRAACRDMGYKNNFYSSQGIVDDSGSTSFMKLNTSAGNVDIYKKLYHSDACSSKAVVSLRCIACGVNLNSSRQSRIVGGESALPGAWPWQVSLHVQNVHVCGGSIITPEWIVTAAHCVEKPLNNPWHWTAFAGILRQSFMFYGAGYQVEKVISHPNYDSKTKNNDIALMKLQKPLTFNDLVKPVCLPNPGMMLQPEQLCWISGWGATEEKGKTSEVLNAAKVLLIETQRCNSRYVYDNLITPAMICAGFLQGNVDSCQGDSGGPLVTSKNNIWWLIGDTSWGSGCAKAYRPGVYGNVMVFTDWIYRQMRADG
smiles,measurement,setting,value
"O=C(NCc1ccccc1)C(=O)[C@H](C[C@@H]1CCCNC1=O)NC(=O)[C@H](Cc1ccc(F)cc1)NC(=O)c1cc2ccccc2o1 [14a, N-((S)-1-(((S)-4-(benzylamino)-3,4-dioxo-1-((S)-2-oxopiperidin-3-yl)butan-2-yl)amino)-3-(4-fluorophenyl)-1-oxopropan-2-yl)benzofuran-2-carboxamide]",Inhibitory activity against TMPRSS2 (in words),Human TMPRSS2,did not exhibit inhibitory activity
same,inhibition at 10 µM,"Human TMPRSS2; read-out: Inhibition rate, Human TMPRSS2",-1 ± 1%
same,"Acute toxicity study, abnormalities in body weights, food mean daily consumption and general status",C57BL/6 mice,No abnormalities
same,"Acute toxicity study, mortality",C57BL/6 mice,No mice died
same,"Acute toxicity study, organs and tissues damage",C57BL/6 mice; at the end of observation,No obvious organs and tissues damage
same,"Acute toxicity study, overall result","C57BL/6 mice; twice daily, observed 12 days",No obvious toxicity
same,Vss_obs,Pharmacokinetics in mice; i.v. (5 mg/kg),9.5 L/kg
same,AUC(0-t),Pharmacokinetics in mice; [2],1260 ng·h/mL
same,Cmax,Pharmacokinetics in mice; [2],1120 ng/mL
same,Tmax,Pharmacokinetics in mice; [2],0.25 h
same,bioavailability,Pharmacokinetics in mice; [2],101%
same,half-life,Pharmacokinetics in mice; [2],7.01 h
same,AUC(0-inf),Pharmacokinetics in mice; [2],1270 ng·h/mL
same,MRT inf,Pharmacokinetics in mice; [2],1.82 h
same,AUC,"Pharmacokinetics in mice; male, ICR, mouse, plasma, ip, intraperitoneal (10 mg/kg) as printed in the text, read-out: area under the curve (AUC)",1270 ng·h/mL
same,AUC(0-t),Pharmacokinetics in mice; [3],1220 ng·h/mL
same,clearance,Pharmacokinetics in mice; [3],66 mL/min/kg
same,half-life,Pharmacokinetics in mice; [3],18.5 h
same,AUC(0-inf),Pharmacokinetics in mice; [3],1260 ng·h/mL
same,MRT inf,Pharmacokinetics in mice; [3],2.4 h
same,AUC(0-t),Pharmacokinetics in mice; [4],125 ng·h/mL
same,Cmax,Pharmacokinetics in mice; [4],124 ng/mL
same,Tmax,Pharmacokinetics in mice; [4],0.25 h
same,bioavailability,Pharmacokinetics in mice; [4],5%
same,half-life,Pharmacokinetics in mice; [4],1.09 h
same,AUC(0-inf),Pharmacokinetics in mice; [4],126 ng·h/mL
same,MRT inf,Pharmacokinetics in mice; [4],1.09 h
same,Antiviral activity by time of addition,SARS-CoV-2 PsV,lost most of their antiviral activity
same,"LPS-induced expression of proinflammatory cytokines (IL-1β, IL-6) and chemokines (CCL3, CXCL10)",[1],significantly inhibited
same,IC50,SARS-CoV-2 M^pro,12.6 µM
same,EC50,HCoV-229E PsV,0.0188 ± 0.00418 µM
same,EC50,HCoV-OC43,3.38 ± 2.07 µM
same,Vss_obs,Pharmacokinetics in dogs; i.v. (1 mg/kg),1.05 L/kg
same,AUC(0-t),Pharmacokinetics in dogs; [5],732 ng·h/mL
same,clearance,Pharmacokinetics in dogs; [5],24.4 mL/min/kg
same,half-life,Pharmacokinetics in dogs; [5],1.04 h
same,AUC(0-inf),Pharmacokinetics in dogs; [5],735 ng·h/mL
same,MRT inf,Pharmacokinetics in dogs; [5],0.74 h
same,AUC(0-t),Pharmacokinetics in dogs; [6],351 ng·h/mL
same,Cmax,Pharmacokinetics in dogs; [6],154 ng/mL
same,Tmax,Pharmacokinetics in dogs; [6],0.75 h
same,bioavailability,Pharmacokinetics in dogs; [6],10%
same,half-life,Pharmacokinetics in dogs; [6],1.33 h
same,AUC(0-inf),Pharmacokinetics in dogs; [6],357 ng·h/mL
same,MRT inf,Pharmacokinetics in dogs; [6],1.86 h
same,AUC(0-t),Pharmacokinetics in dogs; [7],881 ng·h/mL
same,Cmax,Pharmacokinetics in dogs; [7],116 ng/mL
same,Tmax,Pharmacokinetics in dogs; [7],0.5 h
same,bioavailability,Pharmacokinetics in dogs; [7],120%
same,half-life,Pharmacokinetics in dogs; [7],3.96 h
same,AUC(0-inf),Pharmacokinetics in dogs; [7],893 ng·h/mL
same,MRT inf,Pharmacokinetics in dogs; [7],5.14 h
